From ChEMBL document CHEMBL1201862, “PubChem BioAssay data set” (2004)
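96-well plates; 48 h exposure; 5 concentrations. Endpoints by linear interpolation between flanking doses. Not reached: highest tested concentration assigned. Here, GI50 denotes the concentration required for 50% inhibition of growth.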 Calls of active or inactive are those of the source. Rule as the data show it: active = GI50 up to about 1.1 µM and inactive = higher.

Key:
Test in all cases: DTP human tumour cell line panel, 48 h
CCRF-CEM = tested on: CCRF-CEM
COLO 205 = tested on: COLO 205
HOP-92 = tested on: HOP-92
HT-29 = tested on: HT-29
Hs-578T = tested on: Hs-578T
IGROV-1 = tested on: IGROV-1
LOX IMVI = tested on: LOX IMVI
M14 = tested on: M14
MOLT-4 = tested on: MOLT-4
NCI-H226 = tested on: NCI-H226
NCI-H23 = tested on: NCI-H23
OVCAR-3 = tested on: OVCAR-3
OVCAR-8 = tested on: OVCAR-8
RPMI-8226 = tested on: RPMI-8226
RXF 393 = tested on: RXF 393
SNB-19 = tested on: SNB-19
TK-10 = tested on: TK-10
UACC-62 = tested on: UACC-62
UO-31 = tested on: UO-31
BT-549 = tested on: BT-549

SMILES	GI50 (CCRF-CEM)	GI50 (COLO 205)	GI50 (HOP-92)	GI50 (HT-29)	GI50 (Hs-578T)	GI50 (IGROV-1)	GI50 (LOX IMVI)	GI50 (M14)	GI50 (MOLT-4)	GI50 (NCI-H226)	GI50 (NCI-H23)	GI50 (OVCAR-3)	GI50 (OVCAR-8)	GI50 (RPMI-8226)	GI50 (RXF 393)	GI50 (SNB-19)	GI50 (TK-10)	GI50 (UACC-62)	GI50 (UO-31)	GI50 (BT-549)
CCC1(O)CC2CC(=O)OC2C1O (stereo not drawn)	0.423 µM (active)	> 100 µM (inactive)	> 100 µM (inactive)	> 100 µM (inactive)	> 100 µM (inactive)	> 100 µM (inactive)	> 100 µM (inactive)	> 100 µM (inactive)	> 100 µM (inactive)	> 100 µM (inactive)	> 100 µM (inactive)	> 100 µM (inactive)	> 100 µM (inactive)	> 100 µM (inactive)	> 100 µM (inactive)	> 100 µM (inactive)	> 100 µM (inactive)	> 100 µM (inactive)	> 100 µM (inactive)	–
O=C1c2ccccc2-n2c1nc1ccc(Cl)cc1c2=O	3.2 µM (inactive)	> 100 µM (inactive)	45.3 µM (inactive)	> 100 µM (inactive)	–	78.2 µM (inactive)	> 100 µM (inactive)	> 100 µM (inactive)	78.3 µM (inactive)	> 100 µM (inactive)	66.2 µM (inactive)	> 100 µM (inactive)	35.2 µM (inactive)	1.36 µM (inactive)	3.48 µM (inactive)	> 100 µM (inactive)	77.4 µM (inactive)	16.3 µM (inactive)	59.4 µM (inactive)	> 100 µM (inactive)
C/C(=C\c1ccccc1)C(=O)NCc1ccc(C(=O)NCCC(C)C)cc1	> 100 µM (inactive)	> 100 µM (inactive)	49.5 µM (inactive)	41.8 µM (inactive)	–	68.7 µM (inactive)	> 100 µM (inactive)	> 100 µM (inactive)	> 100 µM (inactive)	40.5 µM (inactive)	88.3 µM (inactive)	> 100 µM (inactive)	37.2 µM (inactive)	> 100 µM (inactive)	20.8 µM (inactive)	36.1 µM (inactive)	> 100 µM (inactive)	15.6 µM (inactive)	37.8 µM (inactive)	33.8 µM (inactive)
O=C(Nc1ccc(Cl)cc1C(F)(F)F)C(=O)C1CCCS1(=O)=O (stereo not drawn)	> 100 µM (inactive)	> 100 µM (inactive)	> 10 µM (inactive)	> 100 µM (inactive)	–	> 10 µM (inactive)	> 100 µM (inactive)	> 100 µM (inactive)	> 100 µM (inactive)	> 100 µM (inactive)	> 100 µM (inactive)	> 100 µM (inactive)	> 100 µM (inactive)	> 100 µM (inactive)	> 100 µM (inactive)	> 100 µM (inactive)	> 100 µM (inactive)	> 100 µM (inactive)	–	–
O=C(N/N=C/c1ccc(Cl)cc1)c1ccccc1Nc1ccccc1C(=O)N/N=C/c1ccc(Cl)cc1	> 100 µM (inactive)	> 100 µM (inactive)	> 100 µM (inactive)	> 100 µM (inactive)	–	> 100 µM (inactive)	> 100 µM (inactive)	33 µM (inactive)	> 100 µM (inactive)	> 100 µM (inactive)	> 100 µM (inactive)	> 100 µM (inactive)	> 100 µM (inactive)	> 100 µM (inactive)	> 100 µM (inactive)	> 100 µM (inactive)	> 100 µM (inactive)	> 100 µM (inactive)	> 100 µM (inactive)	> 100 µM (inactive)
CCOC(=O)Cn1nc2ccc(Nc3c(C)[n+]([O-])c4cc(F)c(OCC)cc4[n+]3[O-])cc2n1	> 100 µM (inactive)	–	18.2 µM (inactive)	> 100 µM (inactive)	40.7 µM (inactive)	> 100 µM (inactive)	> 100 µM (inactive)	> 100 µM (inactive)	> 100 µM (inactive)	> 100 µM (inactive)	> 100 µM (inactive)	> 100 µM (inactive)	> 100 µM (inactive)	> 100 µM (inactive)	20.7 µM (inactive)	–	27.5 µM (inactive)	–	> 100 µM (inactive)	–
CCOC(=O)C1C(C(C)C)C2(C#N)C(=N)OC1(C)C2(C#N)C#N (stereo not drawn)	47 µM (inactive)	7.46 µM (inactive)	21.2 µM (inactive)	82 µM (inactive)	> 100 µM (inactive)	88.3 µM (inactive)	43.3 µM (inactive)	> 100 µM (inactive)	–	56.4 µM (inactive)	54.5 µM (inactive)	–	> 100 µM (inactive)	32.8 µM (inactive)	36.3 µM (inactive)	> 100 µM (inactive)	> 100 µM (inactive)	88.9 µM (inactive)	> 100 µM (inactive)	–
N#CCc1nc2cc(C(F)(F)F)ccc2s1	–	34 µM (inactive)	20.4 µM (inactive)	37.7 µM (inactive)	–	–	26.4 µM (inactive)	–	7.96 µM (inactive)	57.8 µM (inactive)	27.7 µM (inactive)	18.3 µM (inactive)	30.1 µM (inactive)	29.4 µM (inactive)	52.2 µM (inactive)	–	41.8 µM (inactive)	–	–	31 µM (inactive)
COc1ccc2nc3ccc(OC)cc3c(SCC3CO3)c2c1 (stereo not drawn)	6.85 µM (inactive)	19 µM (inactive)	–	–	–	–	15.4 µM (inactive)	14.4 µM (inactive)	–	34.4 µM (inactive)	17.2 µM (inactive)	14.9 µM (inactive)	11 µM (inactive)	22.7 µM (inactive)	15.8 µM (inactive)	24.6 µM (inactive)	12.8 µM (inactive)	–	12.3 µM (inactive)	15.8 µM (inactive)
O=Cc1ccccc1COC(=O)c1cc(C(=O)OCc2ccccc2C=O)c(C(=O)OCc2ccccc2C=O)cc1C(=O)OCc1ccccc1C=O	43.4 µM (inactive)	> 100 µM (inactive)	31.6 µM (inactive)	> 100 µM (inactive)	–	> 100 µM (inactive)	42 µM (inactive)	> 100 µM (inactive)	30.3 µM (inactive)	> 100 µM (inactive)	> 100 µM (inactive)	> 100 µM (inactive)	80 µM (inactive)	43.7 µM (inactive)	31.3 µM (inactive)	> 100 µM (inactive)	61.9 µM (inactive)	> 100 µM (inactive)	> 100 µM (inactive)	–
Cc1cc2c3ccccc3[nH]c2c2ccnc(C)c12	2.29 µM (inactive)	1.94 µM (inactive)	5.11 µM (inactive)	3.55 µM (inactive)	13.6 µM (inactive)	15.2 µM (inactive)	2.15 µM (inactive)	1.84 µM (inactive)	7.16 µM (inactive)	13.4 µM (inactive)	12.5 µM (inactive)	10.3 µM (inactive)	8.69 µM (inactive)	3.21 µM (inactive)	–	18.6 µM (inactive)	14.2 µM (inactive)	7.36 µM (inactive)	14.2 µM (inactive)	–
Cc1c(C)c([N+](=O)[O-])c2c(c1N)C(=O)c1ccccc1C2=O	> 100 µM (inactive)	58.9 µM (inactive)	> 100 µM (inactive)	55.2 µM (inactive)	–	> 100 µM (inactive)	> 100 µM (inactive)	> 100 µM (inactive)	> 100 µM (inactive)	> 100 µM (inactive)	> 100 µM (inactive)	24.8 µM (inactive)	> 100 µM (inactive)	> 100 µM (inactive)	> 100 µM (inactive)	> 100 µM (inactive)	> 100 µM (inactive)	> 100 µM (inactive)	> 100 µM (inactive)	–
C[C@H]1CC(=O)C2=CCCC3(SCCCS3)[C@@H]2[C@H]1CO	26.9 µM (inactive)	> 100 µM (inactive)	> 100 µM (inactive)	> 100 µM (inactive)	–	> 100 µM (inactive)	> 100 µM (inactive)	> 100 µM (inactive)	44.9 µM (inactive)	> 100 µM (inactive)	> 100 µM (inactive)	> 100 µM (inactive)	> 100 µM (inactive)	70.8 µM (inactive)	> 100 µM (inactive)	> 100 µM (inactive)	> 100 µM (inactive)	> 100 µM (inactive)	> 100 µM (inactive)	–
O=C1N(CN2CCOCC2)CN(CN2CCOCC2)C(=O)N1Cc1ccc(CN2C(=O)N(CN3CCOCC3)CN(CN3CCOCC3)C2=O)cc1	62.1 µM (inactive)	43 µM (inactive)	52 µM (inactive)	42 µM (inactive)	22 µM (inactive)	> 100 µM (inactive)	23.9 µM (inactive)	28.2 µM (inactive)	35.2 µM (inactive)	> 100 µM (inactive)	34.4 µM (inactive)	31.6 µM (inactive)	42 µM (inactive)	22.7 µM (inactive)	–	97.7 µM (inactive)	> 100 µM (inactive)	31.2 µM (inactive)	44.4 µM (inactive)	–
CCOC(OCC)[C@H](N)[C@@H](O)[C@@H](O)[C@H]1COC(C)(C)O1	> 100 µM (inactive)	> 100 µM (inactive)	–	> 100 µM (inactive)	> 100 µM (inactive)	> 100 µM (inactive)	> 100 µM (inactive)	> 100 µM (inactive)	> 100 µM (inactive)	> 100 µM (inactive)	> 100 µM (inactive)	> 100 µM (inactive)	> 100 µM (inactive)	> 100 µM (inactive)	–	> 100 µM (inactive)	> 100 µM (inactive)	> 100 µM (inactive)	> 100 µM (inactive)	–
O=C(OC1CCC(=C2SCCCS2)[C@H]1C1SCCCS1)c1ccccc1 (stereo partly drawn)	> 100 µM (inactive)	> 100 µM (inactive)	16.9 µM (inactive)	> 100 µM (inactive)	–	> 100 µM (inactive)	> 100 µM (inactive)	> 100 µM (inactive)	> 100 µM (inactive)	30.5 µM (inactive)	> 100 µM (inactive)	> 100 µM (inactive)	> 100 µM (inactive)	86.3 µM (inactive)	67.1 µM (inactive)	> 100 µM (inactive)	> 100 µM (inactive)	45.4 µM (inactive)	24.5 µM (inactive)	–
